Legend:
[1] = test system: murine fibroblast line NIH3T3; test: Hyperthermia sensitivity test using flow cytometry; format: cell-based; conditions: normal cells NIH3T3, 42° C.
Protocol: (§1) To investigate what kind of effect the addition of 5-ALA could exert on hyperthermia sensitivity of cancer cells, a hyperthermia sensitivity test was performed using a flow cytometry technique as follows.
(§2) First, a human fibrosarcoma cell line HT-1080 and a colon cancer-derived cell line Caco-2 were prepared as cancer cell lines, and a human fibroblast line WI-38 and a murine fibroblast line NIH3T3 were prepared as normal cell lines. Also, prepared was a human embryonic kidney cell line HEK293 transformed so as to overgrow like cancer cells. These cells were cultured at 37° C. for 24 hours in 10% FBS-containing DME medium, and split into 8 groups. Next, the medium was replaced by an FBS-free DME medium. Then, 5-aminolevulinic acid (5-ALA) was added to each group at a final concentration of 0.5 mM, 1.0 mM, or 2.0 mM, and cultured at 37° C. for 2 hours. After that, 10% FBS was added, and the resulting cell groups were incubated […] for 24 hours. In addition, 5-ALA-free cell groups were likewise incubated at 37 or 42° C. for 24 hours. All the above culture processes were conducted in the dark, so that an ultraviolet light, visible light, infrared light, or radiation, etc., was never used for irradiation.
(§3) With regard to the fraction of dead cells, a total number of cells having apoptosis and necrosis was counted, and a ratio of the total number to the number of all cells was calculated. […] Of note is little enhancement of the cell death-inducing effect in normal cells.

[2] = test system: human fibroblast line WI-38; test: Hyperthermia sensitivity test using flow cytometry; format: cell-based; conditions: normal cells WI-38, 42° C.
Protocol: as §1, §2, §3

[3] = test system: human embryonic kidney cell line HEK293 transformed so as to overgrow like cancer cells; test: Hyperthermia sensitivity test using flow cytometry; format: cell-based; conditions: for fraction of dead cells (%), increase compared with 5-ALA-free cells: 42° C.
Protocol: as §1, §2, §3

[4] = test system: human fibrosarcoma cell line HT-1080; test: Hyperthermia sensitivity test using flow cytometry; format: cell-based; conditions: for fraction of dead cells (%), increase compared with 5-ALA-free cells: 42° C.
Protocol: as §1, §2, §3

[5] = test system: colon cancer-derived cell line Caco-2; test: Hyperthermia sensitivity test using flow cytometry; format: cell-based; conditions: for fraction of dead cells (%), increase compared with 5-ALA-free cells: 42° C.
Protocol: as §1, §2, §3

normal cell line WI-38 = test: Measuring intracellular PpIX concentration by HPLC; format: cell-based, human; conditions: WI-38, regardless of the 5-ALA concentration added, 37 or 42° C.
Protocol: These two types of cells were cultured at 37 or 42° C. for 24 hours in a DME medium containing 10% FBS and 5-ALA at a concentration of 0, 0.5, 1, or 2 mM. Next, the cells were harvested using trypsin treatment. Then, the number of cells contained in a measurement sample was adjusted using a hemocytometer at 1×10^4. After that, the cells were lysed with NaOH, and treated with a DMF solution (i.e., a mixture of N,N-dimethylformamide:2-propanol=100:1). The resulting cell lysate was centrifuged at 13,000 rpm and 4° C. for 10 minutes to collect a supernatant. Subsequently, the supernatant was reacted at room temperature for 24 hours. Finally, the resulting supernatant was used as a measurement sample, and was subjected to a PpIX concentration measurement using HPLC.

HEK293 cells = test: Assay for intracellular reactive oxygen species (DCF-DA, flow cytometry); format: cell-based, human; conditions: for fluorescence peak value derived from DCF-DA: 42° C. (5-ALA-free cells 244); for level of intracellular reactive oxygen species, increase compared with 5-ALA-free cells: 42° C. for 24 hours, in the dark; for level of intracellular reactive oxygen species (in words): 0.5-2.0 mM 5-ALA
Text: To investigate what kind of effect 5-aminolevulinic acids according to the present invention could exert on a level of intracellular reactive oxygen species during thermotherapy, human embryonic kidney-derived HEK293 cells and a DCF-DA fluorescent reagent (2′,7′-dichlorodihydrofluorescein diacetate; H2DCFDA) were used to perform an assay for measuring a level of intracellular reactive oxygen species. Note that this assay uses characteristics as follows. Cell-permeable H2DCFDA remains a non-fluorescent substance until it is oxidized in the cytoplasm of a viable cell. Once it enters the viable cell, its diacetate group is cleaved by an intracellular esterase. Then, the resulting molecule is further oxidized by reactive oxygen species to emit fluorescence. The higher the measured fluorescence level, the higher the level of intracellular reactive oxygen species. This assay was performed using the following procedure.
First, HEK293 cells were cultured at 37° C. for 24 hours in 10% fetal bovine serum (FBS)-containing Dulbecco's Modified Eagle (DME) medium. The cells were split into 8 groups. Next, the medium was replaced by an FBS-free DME medium. Then, 5-aminolevulinic acid (5-ALA) was added to each group at a final concentration of 0.5 mM, 1.0 mM, or 2.0 mM, and cultured at 37° C. for 2 hours. After that, 10% FBS was added, and the resulting HEK293 cells were incubated at 37 or 42° C. for 24 hours. In addition, 5-ALA-free HEK293 cells were likewise incubated at 37 or 42° C. for 24 hours. All the above culture processes were conducted in the dark, so that an ultraviolet light, visible light, infrared light, or radiation, etc., was never used for irradiation.
Furthermore, to each group of the HEK293 cells was added a DCF-DA fluorescent reagent (manufactured by Sigma-Aldrich Corporation) at a final concentration of 20 μM. The resulting mixture was incubated for 30 minutes. Then, fluorescence (FL1: green fluorescence) derived from the DCF-DA was measured for each group by flow cytometry (FACSCalibur, manufactured by Becton, Dickinson and Company). […] More specifically, when 0.5 mM of 5-ALA was added at an incubation temperature of 42° C., the level of intracellular reactive oxygen species was increased by 1.23 times (300/244) compared with that of the 5-ALA-free cells. When 1.0 mM of 5-ALA was added, the level of intracellular reactive oxygen species was increased by 1.34 times (326/244). When 2.0 mM of 5-ALA was added, the level of intracellular reactive oxygen species was increased by 1.42 times (346/244).

[6] = test system: human cervical cancer-derived cell line HeLa; test: Hyperthermia sensitivity test using trypan blue reagent; format: cell-based; conditions: 42° C.
Text: A colon cancer-derived cell line Caco-2, a human hepatoma-derived cell line HepG2, a human gastric cancer-derived cell line KatoIII, and a human cervical cancer-derived cell line HeLa were used as cancer cell lines. A human embryonic kidney cell line HEK293 was used as cells transformed so as to overgrow like cancer cells. A human normal diploid fibroblast line WI-38, a murine fibroblast-like cell line NIH3T3, and a human embryonic lung-derived normal fibroblast MRCS were used as normal cells. Each of these cells was cultured at 37 or 42° C. for 24 hours in a DME medium containing 10% FBS and 5-ALA at a concentration of 0, 0.5, 1, or 2 mM, and treated with trypsin for cell harvest. Then, equal volumes of the harvested cell-containing solution and a trypan blue reagent were mixed, and the number of the cells was counted with a hemocytometer to calculate the fraction of dead cells (cells stained with trypan blue) (%; percent cell death).

NCC(=O)CCC(=O)O [5-ALA, 5-aminolevulinic acid]
5-ALA concentration-dependent cell death (in words) [1]: not enhanced | 5-ALA concentration-dependent cell death (in words) [2]: not enhanced | fraction of dead cells (%), increase compared with 5-ALA-free cells ([3]; HEK293, 0.5 mM 5-ALA): about 3.2 times | fraction of dead cells (%), increase compared with 5-ALA-free cells ([3]; HEK293, 1.0 mM 5-ALA): about 4.8 times | fraction of dead cells (%), increase compared with 5-ALA-free cells ([3]; HEK293, 2.0 mM 5-ALA): about 6.0 times | fraction of dead cells (in words) ([3]; HEK293, 37° C.): somewhat increased | fraction of dead cells (in words) ([3]; HEK293, 42° C.): increase markedly | fraction of dead cells (%), increase compared with 5-ALA-free cells ([4]; HT-1080, 0.5 mM 5-ALA): about 1.7 times | fraction of dead cells (%), increase compared with 5-ALA-free cells ([4]; HT-1080, 1.0 mM 5-ALA): about 1.5 times | fraction of dead cells (%), increase compared with 5-ALA-free cells ([4]; HT-1080, 2.0 mM 5-ALA): about 2.3 times | fraction of dead cells (in words) ([4]; HT-1080, 37° C.): somewhat increased | fraction of dead cells (in words) ([4]; HT-1080, 42° C.): increase markedly | fraction of dead cells (%), increase compared with 5-ALA-free cells ([5]; Caco-2, 0.5 mM 5-ALA): about 2.1 times | fraction of dead cells (%), increase compared with 5-ALA-free cells ([5]; Caco-2, 1.0 mM 5-ALA): about 2.0 times | fraction of dead cells (%), increase compared with 5-ALA-free cells ([5]; Caco-2, 2.0 mM 5-ALA): about 1.9 times | fraction of dead cells (in words) ([5]; Caco-2, 37° C.): somewhat increased | fraction of dead cells (in words) ([5]; Caco-2, 42° C.): increase markedly | intracellular PpIX concentration (in words) (normal cell line WI-38): detection limit or less | fluorescence peak value derived from DCF-DA (HEK293 cells; 0.5 mM 5-ALA): 300 | level of intracellular reactive oxygen species, increase compared with 5-ALA-free cells (HEK293 cells; 0.5 mM 5-ALA): 1.23 times | fluorescence peak value derived from DCF-DA (HEK293 cells; 1.0 mM 5-ALA): 326 | level of intracellular reactive oxygen species, increase compared with 5-ALA-free cells (HEK293 cells; 1.0 mM 5-ALA): 1.34 times | fluorescence peak value derived from DCF-DA (HEK293 cells; 2.0 mM 5-ALA): 346 | level of intracellular reactive oxygen species, increase compared with 5-ALA-free cells (HEK293 cells; 2.0 mM 5-ALA): 1.42 times | level of intracellular reactive oxygen species (in words) (HEK293 cells; incubation temperature 37° C.): somewhat increased | level of intracellular reactive oxygen species (in words) (HEK293 cells; incubation temperature 42° C.): markedly increased | fraction of dead cells (%), increase compared with 5-ALA-free cells ([6]; 0.5 mM 5-ALA): about 1.4 times | fraction of dead cells (%), increase compared with 5-ALA-free cells ([6]; 1.0 mM 5-ALA): about 1.5 times | fraction of dead cells (%), increase compared with 5-ALA-free cells ([6]; 2.0 mM 5-ALA): about 1.6 times
